system: phospho-serine 2056 DNA-PK in HCT116 cells; experiment: DNA-PK phosphorylation at serine 2056 (cellular), ELISA in bleomycin-treated HCT116 cells; type: cell-based; settings: Homo sapiens, HCT-116, 6 h, cellular; HCT116 cells, 10 μM bleomycin, six hours; read-out: IC50 pDNA-PK
Outline: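 Chemiluminescent ELISA read-out; phospho-specific signal normalised to total DNA-PKcs. Cells (HCT116) exposed 6 h to test compound plus 10 μM bleomycin to induce double-strand breaks; DMSO control served as blank.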

Structure (SMILES)	IC50 [µM]
COc1ncc(Cl)nc1C(O)c1ccc(F)c(-c2ncnc3cc(N4CCOCC4)ccc23)c1 (stereo not shown) [Example 25, (6-Chloro-3-methoxy-pyrazin-2-yl)-[4-fluoro-3-(7-morpholin-4-yl-quinazolin-4-yl)phenyl]-methanol]	< 0.5
OC(c1ccc(Cl)nn1)c1cc(-c2ncnc3cc(N4CCOCC4)ccc23)c(F)cc1F (stereo not shown) [Example 49, (6-Chloro-pyridazin-3-yl)-[2,4-difluoro-5-(7-morpholin-4-yl-quinazolin-4-yl)phenyl]-methanol]	0.5 to 5
OC(c1ccc(F)c(-c2ncnc3cc(N4CCOCC4)ccc23)c1)c1c(F)cncc1Cl (stereo not shown) [Example 77, (3-Chloro-5-fluoro-pyridin-4-yl)-[4-fluoro-3-(7-morpholin-4-yl-quinazolin-4-yl)phenyl]-methanol]	< 0.5
O=c1ccc(C(O)c2cc(-c3ncnc4cc(N5CCOCC5)ccc34)c(F)cc2Cl)n[nH]1 (stereo not shown) [Example 92, 3-[[2-Chloro-4-fluoro-5-(7-morpholino-quinazolin-4-yl)phenyl]-hydroxymethyl]-1H-pyridazin-6-one]	< 0.5

same assay, conditions: Homo sapiens, HCT-116, cellular DNA-PK phosphorylation at serine 2056, HCT116 cells; read-out: IC50 pDNA-PK

Structure (SMILES)	IC50 [µM]
OC(c1cc(-c2ncnc3cc(N4CCOCC4)ccc23)ccc1F)c1ncnc2ccoc12 (stereo not shown) [Example 374, [2-Fluoro-5-(7-morpholin-4-yl-quinazolin-4-yl)-phenyl]furo[3,2-d}-pyrimidin-4-yl-methanol]	0.5 to 5
COc1cnc(C(O)c2ccc(F)c(-c3ncnc4cc(N5CCOCC5)ccc34)c2)c(Br)c1 (stereo not shown) [Example 473, (3-bromo-5-methoxy-pyridin-2-yl)-[4-fluoro-3-(7-morpholin-4-yl-quinazolin-4-yl)-phenyl]methanol]	< 0.5
OC(c1cc(-c2ncnc3cc(N4CCOCC4)ccc23)ccc1Cl)c1ncnc2ccoc12 (stereo not shown) [Example 414, [2-Chloro-5-(7-morpholin-4-yl-quinazolin-4-yl)-phenyl]furo[3,2-d}-pyrimidin-4-yl-methanol (Ena 2)]	< 0.5
OC(c1cc(-c2ncnc3cc(N4CCOCC4)ccc23)ccc1F)c1nccn2ccnc12 (stereo not shown) [Example 372, [2-Fluoro-5-(7-morpholin-4-yl-quinazolin-4-yl)-phenyl]imidazo-[1,2-a]pyrazin-8-yl-methanol]	0.5 to 5
Cn1ncc2c(C(O)c3ccc(F)c(-c4ncnc5cc(N6CCOCC6)ccc45)c3)ncnc21 (stereo not shown) [Example 404, [4-Fluoro-3-(7-morpholin-4-yl-quinazolin-4-yl)-phenyl]-(1-methyl-1H-pyrazolo[3,4-d}-pyrimidin-4-yl)-methanol]	< 0.5
OC(c1ccc(F)c(-c2ncnc3cc(N4CCOCC4)ccc23)c1)c1ncccc1Br (stereo not shown) [Example 478, (3-bromo-pyridin-2-yl)-[4-fluoro-3-(7-morpholin-4-yl-quinazolin-4-yl)-phenyl]methanol]	< 0.5
O=C1CCCN1c1nccnc1C(O)c1ccc(F)c(-c2ncnc3cc(N4CCOCC4)ccc23)c1 (stereo not shown) [Example 425, 1-(3-{[4-Fluoro-3-(7-morpholin-4-yl-quinazolin-4-yl)-phenyl]hydroxy-methyl}pyrazin-2-yl)-pyrrolidin-2-one]	10 to 30

same assay, conditions: Homo sapiens, HCT-116, phospho-serine 2056 DNA-PK, bleomycin-treated HCT116 cells; class symbols A-D; read-out: IC50 pDNA-PK

Structure (SMILES)	IC50 [µM]
COC(=O)COc1ccc(C(O)c2cc(-c3ncnc4cc(N5CCOCC5)ccc34)c(F)cc2Cl)nn1 (stereo not shown) [Example 114, (6-{[2-Chloro-4-fluoro-5-(7-morpholin-4-yl-quinazolin-4-yl)-phenyl]hydroxy-methyl}pyridazin-3-yl-oxy)acetic acid methyl ester]	10 to 30
COc1ccc(C(O)c2cc(-c3ncnc4cc(N5CCOCC5)ccc34)c(F)cc2F)cn1 (stereo not shown) [Example 221, [2,4-Difluoro-5-(7-morpholin-4-yl-quinazolin-4-yl)-phenyl]-(6-methoxy-pyridin-3-yl)methanol]	0.5 to 5
OC(c1ccccn1)c1cc(-c2ncnc3cc(N4CCOCC4)ccc23)c(F)cc1F (stereo not shown) [Example 218, [2,4-Difluoro-5-(7-morpholin-4-yl-quinazolin-4-yl)-phenyl]pyridin-2-yl-methanol]	< 0.5
OC(c1cn2ccnc2cn1)c1cc(-c2ncnc3cc(N4CCOCC4)ccc23)c(F)cc1F (stereo not shown) [Example 223, [2,4-Difluoro-5-(7-morpholin-4-yl-quinazolin-4-yl)-phenyl]imidazo-[1,2-a]pyrazin-6-yl-methanol]	0.5 to 5
OC(c1cc(F)cc(-c2ncnc3cc(N4CCOCC4)ccc23)c1)c1nccs1 (stereo not shown) [Example 169, [3-Fluoro-5-(7-morpholin-4-yl-quinazolin-4-yl)-phenyl]thiazol-2-yl-methanol]	10 to 30
OC(c1nccs1)c1cc(-c2ncnc3cc(N4CCOCC4)ccc23)ccc1F (stereo not shown) [Example 170, [2-Fluoro-5-(7-morpholin-4-yl-quinazolin-4-yl)-phenyl]thiazol-2-yl-methanol]	5 to 10
COc1ccc([C@@H](O)c2cc(-c3ncnc4cc(N5CCOCC5)ccc34)c(F)cc2Cl)nn1 [Example 136, (S)-[2-Chloro-4-fluoro-5-(7-morpholin-4-yl-quinazolin-4-yl)-phenyl]-(6-methoxy-pyridazin-3-yl)-methanol]	< 0.5

same assay, conditions: Homo sapiens, HCT-116, phospho-serine 2056 DNA-PK, bleomycin-treated HCT116 cells; read-out: IC50 pDNA-PK

Structure (SMILES)	IC50 [µM]
NC(=O)C(c1cccnn1)c1cc(-c2ncnc3cc(N4CCOCC4)ccc23)c(F)cc1Cl (stereo not shown) [Example 300, 2-[2-Chloro-4-fluoro-5-(7-morpholin-4-yl-quinazolin-4-yl)-phenyl]-2-pyridazin-3-ylacetamide]	10 to 30
COc1nccnc1C(C(N)=O)c1cc(-c2ncnc3cc(N4CCOCC4)ccc23)c(F)cc1F (stereo not shown) [Example 319, 2-[2,4-Difluoro-5-(7-morpholin-4-ylquinazolin-4-yl)phenyl]-2-(3-methoxypyrazin-2-yl)-acetamide]	5 to 10
NC(=O)C(c1ccc(F)c(-c2ncnc3cc(N4CCOCC4)ccc23)c1)c1nnc(Cl)c2ccsc12 (stereo not shown) [Example 290, 2-(4-Chlorothieno-[2,3-d}pyridazin-7-yl)-2-[4-fluoro-3-(7-morpholin-4-yl-quinazolin-4-yl)-phenyl]acetamide]	5 to 10
OC(c1ccc(F)c(-c2ncnc3cc(N4CCOCC4)ccc23)c1)c1ncnn2cccc12 (stereo not shown) [Example 345, [4-Fluoro-3-(7-morpholin-4-yl-quinazolin-4-yl)-phenyl]pyrrolo[2,1-f]-[1,2,4]triazin-4-yl-methanol]	< 0.5
COc1nccnc1C(C(N)=O)c1ccc(F)c(-c2ncnc3cc(N4CCOCC4)ccc23)c1 (stereo not shown) [Example 305, 2-[4-Fluoro-3-(7-morpholin-4-yl-quinazolin-4-yl)-phenyl]-2-(3-methoxy-pyrazin-2-yl)acetamide]	5 to 10
COc1ccc(C(C(N)=O)c2cc(-c3ncnc4cc(N5CCOCC5)ccc34)ccc2Cl)nn1 (stereo not shown) [Example 310, 2-[2-Chloro-5-(7-morpholin-4-yl-quinazolin-4-yl)-phenyl]-2-(6-methoxy-pyridazin-3-yl)acetamide]	10 to 30
Cc1cc(C(O)c2ccc(F)c(-c3ncnc4cc(N5CCOCC5)ccc34)c2)n(C)c(=O)c1 (stereo not shown) [Example 340, 6-{[4-Fluoro-3-(7-morpholin-4-yl-quinazolin-4-yl)-phenyl]hydroxy-methyl}-1,4-dimethyl-1H-pyridin-2-one]	0.5 to 5

same assay, conditions: cellular DNA-PK phosphorylation at serine 2056, HCT116 cells; read-out: IC50 pDNA-PK

Structure (SMILES)	IC50 [µM]
OC(c1ccc(F)c(-c2ncnc3cc(N4CCOCC4)ccc23)c1)c1ncnc2occc12 (stereo not shown) [Example 434, [4-Fluoro-3-(7-morpholin-4-yl-quinazolin-4-yl)-phenyl]furo[2,3-d}-pyrimidin-4-yl-methanol]	< 0.5
Cc1cncnc1C(O)c1cc(-c2ncnc3cc(N4CCOCC4)ccc23)ccc1Cl (stereo not shown) [Example 418, [2-Chloro-5-(7-morpholin-4-yl-quinazolin-4-yl)-phenyl]-(5-methyl-pyrimidin-4-yl)-methanol (Ena 1)]	0.5 to 5
COc1ccc(C(O)c2cc(-c3ncnc4cc(N5CCOCC5)ccc34)ccc2Cl)nn1 (stereo not shown) [Example 460, [2-Chloro-5-(7-morpholin-4-yl-quinazolin-4-yl)-phenyl]-(6-methoxy-pyridazin-3-yl)-methanol]	< 0.5
OC(c1cc(-c2ncnc3cc(N4CCOCC4)ccc23)c(F)cc1Cl)c1ncnc2ccoc12 (stereo not shown) [Example 441, [2-Chloro-4-fluoro-5-(7-morpholin-4-yl-quinazolin-4-yl)-phenyl]furo[3,2-d}-pyrimidin-4-yl-methanol]	< 0.5
OC(c1cc(-c2ncnc3cc(N4CCOCC4)ccc23)c(F)cc1F)c1nccnc1OC(F)F (stereo not shown) [Example 451, (3-Difluoromethoxy-pyrazin-2-yl)-[2,4-difluoro-5-(7-morpholin-4-yl-quinazolin-4-yl)-phenyl]methanol]	0.5 to 5
Cc1cncnc1C(C(N)=O)c1cc(-c2ncnc3cc(N4CCOCC4)ccc23)ccc1Cl (stereo not shown) [Example 378, 2-[2-Chloro-5-(7-morpholin-4-yl-quinazolin-4-yl)-phenyl]-2-(5-methyl-pyrimidin-4-yl)-acetamide (Ena 1)]	0.5 to 5

same assay, conditions: cellular; HCT116 cells, 10 μM bleomycin, six hours; read-out: IC50 pDNA-PK

Structure (SMILES)	IC50 [µM]
OC(c1ccc2nccn2n1)c1cc(-c2ncnc3cc(N4CCOCC4)ccc23)c(F)cc1Cl (stereo not shown) [Example 57, [2-Chloro-4-fluoro-5-(7-morpholin-4-yl-quinazolin-4-yl)phenyl]-imidazo[1,2-b]pyridazin-6-ylmethanol]	< 0.5
OC(c1ccc(F)c(-c2ncnc3cc(N4CCOCC4)sc23)c1)c1nccnc1Cl (stereo not shown) [Example 37, (3-Chloropyrazin-2-yl)-[4-fluoro-3-(6-morpholin-4-ylthieno[3,2-d}pyrimidin-4-yl)phenyl]-methanol]	< 0.5

same assay, conditions: phospho-serine 2056 DNA-PK, bleomycin-treated HCT116 cells; class symbols A-D; read-out: IC50 pDNA-PK

Structure (SMILES)	IC50 [µM]
OC(c1cc(F)c(F)c(-c2ncnc3cc(N4CCOCC4)ccc23)c1)c1nccs1 (stereo not shown) [Example 179, [3,4-Difluoro-5-(7-morpholin-4-yl-quinazolin-4-yl)-phenyl]thiazol-2-yl-methanol]	0.5 to 5

— US11065253B2, “Arylquinazolines” (Merck Patent GmbH, priority 2013, dated 2021)
